How the values were obtained:
[1] = target: cyclophilin A (CYPA) (Homo sapiens, UniProt P62937); experiment: CYPA-compound binary complex formation by SPR; details: read-out: CYPA Binding Affinity
Outline: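 CypA-Avi captured on a Biotin CAPture chip (4 μg/ml), reference flow cell subtracted. Compounds injected as 10-point 2-fold dilutions from 50 μM in HBS-P+ pH7.4 with 2% DMSO; 60 s association and 60 s dissociation, solvent-corrected. Affinity obtained by steady-state fitting.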

[2] = tested on: pERK in H358 cells; experiment: pERK inhibition in H358 cells; assay type: cell-based, human; details: 4 hours treatment, read-out: Cellular pERK inhibition
Outline: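 Human lung cancer H358 cells in RPMI/10% FBS were exposed to compound or DMSO for 4 h. Fixed and permeabilized cells were stained overnight at 4 C with anti-phospho-ERK1/2 (Thr202/Tyr204). Near-infrared imaging read the pERK signal at 800 nm, with DRAQ5 at 700 nm.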

[3] = target: T1, BRAF-GTP-KRAS-G12C complex (Homo sapiens, UniProt P01116+P62937, G12C); experiment: KRAS-BRAF complex disruption through competition with CYPA-compound by TR-FRET; details: biochemical BRAF-KRAS G12C-GTP disruption assay EC50, with CYPA
T1 construct: 50 nM of His6-KRas G12C-GTP (1-169); 500 nM of tagless CypA (1-165)
Outline: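 His6-KRAS G12C-GTP (1-169, 50 nM) with tagless CypA (1-165, 500 nM) was incubated with compound for 3 h at room temperature in pH 7.3 Hepes/NaCl/MgCl2 buffer containing GST-BRAF RBD. Anti-His Eu (10 nM) and anti-GST APC (50 nM) were then added for 1.5 h, and the 665/615 nm TR-FRET ratio was read. EC50 from 4-parameter fit; for specificity, wild-type KRAS replaced G12C, and CypA was omitted to test presenter dependence.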

Structure (SMILES) | Kd [1] [µM] | IC50 [2] [µM] | EC50 [3] [µM]
CC(C)[C@@H](C(=O)N[C@H]1Cc2cc(O)cc(n2)-c2ccc3c(C(C)(C)C#N)cn(c3c2)C[C@H](C)CNC(=O)[C@@H]2CCCN(N2)C1=O)N(C)C(=O)C1CN(C(=O)CCl)C1 [Compound 60] | 5 to 15 | > 10 | > 5
CC(C)C(C(=O)NC1Cc2cc(O)cc(c2)-c2ccc3c(C(C)(C)C#N)cn(c3c2)CC(C(F)F)COC(=O)C2CCCN(N2)C1=O)N(C)C(=O)C1CN(C(=O)CCl)C1 (single isomer, unassigned) [Compound 36] | 5 to 15 | 1 to 10 | ≤ 0.5
CC(C)[C@@H](C(=O)N[C@H]1Cc2cc(O)cc(n2)-c2ccc3c(C(C)(C)C#N)cn(c3c2)C[C@H](C)COC(=O)[C@@H]2CCCN(N2)C1=O)N(C)C(=O)C1CN(C(=O)CCl)C1 [Compound 59] | > 15 | > 10 | > 5
CC1COC(=O)C2CCCN(N2)C(=O)C(NC(=O)C(C(C)C)N(C)C(=O)C2CN(C(=O)C(C)Cl)C2)Cc2cc(O)cc(c2)-c2ccc3c(C(C)(C)C#N)cn(c3c2)C1 (stereo not drawn) [Compound 18] | > 15 | > 10 | 0.5 to 5
CC1COC(=O)[C@@H]2CCCN(N2)C(=O)[C@@H](NC(=O)[C@H](C(C)C)N(C)C(=O)C2CN(C(=O)CCl)C2)Cc2cc(O)cc(c2)-c2ccc3c(c2)N(CCO3)C1 (single isomer, unassigned) [Compound 183] | 5 to 15 | 1 to 10 | 0.5 to 5
C=CC(=O)N1CCN([C@H](C(=O)N[C@H]2Cc3cc(O)cc(c3)-c3ccc4c(Cl)nn(c4c3)CC(C)(C)COC(=O)[C@@H]3CCCN(N3)C2=O)C(C)C)C1=O [Compound 200] | > 15 | > 10 | ≤ 0.5
CC(C)[C@@H](C(=O)N[C@H]1Cc2cc(O)cc(c2)-c2ccc3nnn(c3c2)CC(C)(C)COC(=O)[C@@H]2CCCN(N2)C1=O)N(C)C(=O)C1CN(C(=O)CCl)C1 [Compound 175] | 5 to 15 | > 10 | ≤ 0.5
CC(C)C(C(=O)NC1Cc2cc(O)cc(c2)-c2ccc3c(C(=O)N(C)C)cn(c3c2)CC(C)(C)COC(=O)C2CCCN(N2)C1=O)N(C)C(=O)C1CN(C(=O)CCl)C1 (stereo not drawn) [Compound 109] | > 15 | > 10 | ≤ 0.5
CC(C)[C@@H](C(=O)N[C@H]1Cc2cc(O)cc(c2)-c2cc3c(ccc(C#N)c3s2)OCCCOC(=O)[C@@H]2CCCN(N2)C1=O)N(C)C(=O)C1CN(C(=O)CCl)C1 [Compound 172] | 5 to 15 | > 10 | 0.5 to 5
CC(C)C(C(=O)NC1Cc2cc(O)cc(c2)-c2ccc3c(C(C)(C)C#N)cn(c3c2)CC(C)(C)COC(=O)C2CCCN(N2)C1=O)N(C)C(=O)C1CCN(C(=O)CCl)C1 (stereo not drawn) [Compound 33] | 5 to 15 | ≤ 1 | ≤ 0.5
Cc1nc2ccc3cc2n1CC1(CC1)COC(=O)[C@@H]1CCCN(N1)C(=O)[C@@H](NC(=O)[C@H](C(C)C)N(C)C(=O)C1CN(C(=O)CCl)C1)Cc1cc(O)cc-3c1 [Compound 151] | 5 to 15 | > 10 | ≤ 0.5
C=CS(=O)(=O)N1CCN([C@H](C(=O)N[C@H]2Cc3cc(O)cc(c3)-c3ccc4nc(C)n(c4c3)CC(C)(C)COC(=O)[C@@H]3CCCN(N3)C2=O)C(C)C)C1=O [Compound 152] | 5 to 15 | 1 to 10 | ≤ 0.5
C=CC(=O)N1CCC(C(=O)N(C)C(C(=O)NC2Cc3cc(O)cc(c3)-c3ccc4c(-c5c(COC)noc5C)cn(c4c3)CC(C)(C)COC(=O)C3CCCN(N3)C2=O)C(C)C)C1 (stereo not drawn) [Compound 394] | 5 to 15 | > 10 | 0.5 to 5
C=CC(=O)N1CCN([C@H](C(=O)N[C@H]2Cc3cc(O)cc(c3)-c3ccc4c(C)cn(c4c3)CC(C)(C)COC(=O)[C@@H]3CCCN(N3)C2=O)C(C)C)C1=O [Compound 97] | > 15 | > 10 | ≤ 0.5

Other lines, results leading:

Kd [1] [µM] | IC50 [2] [µM] | EC50 [3] [µM] | Structure (SMILES)
≤ 5 | 1 to 10 | 0.5 to 5 | CC(C)[C@@H](C(=O)N[C@H]1Cc2cc(O)cc(c2)-c2ccc3c(C(C)(C)C#N)cn(c3c2)C[C@H](C)COC(=O)[C@@H]2CCCN(N2)C1=O)N1CC[C@@H](N(C)C(=O)CCl)C1=O [Compound 30]
5 to 15 | > 10 | ≤ 0.5 | CC(C)[C@@H](C(=O)N[C@H]1Cc2cc(O)cc(c2)-c2ccc3ncn(c3c2)CC(C)(C)COC(=O)[C@@H]2CCCN(N2)C1=O)N(C)C(=O)C1CN(C(=O)CCl)C1 [Compound 139]
≤ 5 | 1 to 10 | ≤ 0.5 | CC1COC(=O)C2CCCN(N2)C(=O)C(NC(=O)C(C(C)C)N(C)C(=O)C2CN(C(=O)CCl)C2)Cc2cc(O)cc(c2)-c2ccc3c(c2)N(C1)CC3(C)CCC#N (mixture of isomers) [Compound 225]
5 to 15 | > 10 | 0.5 to 5 | CC#CC(=O)N1CC2(CCN([C@H](C(=O)N[C@H]3Cc4cc(O)cc(c4)-c4ccc5c(C(C)(C)C#N)cn(c5c4)CC(C)(C)COC(=O)[C@@H]4CCCN(N4)C3=O)C(C)C)C2=O)C1 [Compound 259]
5 to 15 | 1 to 10 | ≤ 0.5 | CC(C)[C@@H](C(=O)N[C@H]1Cc2cc(O)cc(c2)-c2ccc3c(C#N)cn(c3n2)CC(C)(C)COC(=O)[C@@H]2CCCN(N2)C1=O)N(C)C(=O)C1CN(C(=O)CCl)C1 [Compound 176]
5 to 15 | 1 to 10 | 0.5 to 5 | C=CC(=O)N1CCN(C(=O)N(C)[C@H](C(=O)N[C@H]2Cc3cc(O)cc(c3)-c3ccc4c(C(C)(C)C#N)cn(c4c3)CC(C)(C)COC(=O)[C@@H]3CCCN(N3)C2=O)C(C)C)CC1 [Compound 344]
≤ 5 | ≤ 1 | ≤ 0.5 | CC1COC(=O)C2CCCN(N2)C(=O)C(NC(=O)C(C(C)C)N(C)C(=O)C2CN(C(=O)CCl)C2)Cc2cc(O)cc(c2)-c2ccc3c(C(C)C#N)cn(c3c2)C1 (stereo not drawn) [Compound 77]
5 to 15 | > 10 | ≤ 0.5 | CC(C)[C@@H](C(=O)N[C@H]1Cc2cc(O)cc(c2)-c2ccc3c(C(C)(C)C#N)cn(c3c2)CC(CC#N)COC(=O)[C@@H]2CCCN(N2)C1=O)N(C)C(=O)C1CN(C(=O)CCl)C1 (stereo partly drawn) [Compound 39]
≤ 5 | ≤ 1 | 0.5 to 5 | C=CC(=O)N1CCC(C(=O)N(C)C(C(=O)NC2Cc3cc(O)cc(c3)-c3ccc4c(c3)c(cn4C(C)(C)C#N)CC(C)(C)COC(=O)C3CCCN(N3)C2=O)C2CCCC2)C1 (stereo not drawn) [Compound 395]
5 to 15 | > 10 | ≤ 0.5 | CC1COC(=O)[C@@H]2CCCN(N2)C(=O)[C@@H](NC(=O)[C@H](C(C)C)N(C)C(=O)C2CN(C(=O)CCl)C2)Cc2cc(O)cc(c2)-c2ccc3c(S(C)(=O)=O)cn(c3c2)C1 (single isomer, unassigned) [Compound 111]
> 15 | > 10 | > 5 | C=CC(=O)N1CCCC1C(=O)N(C)C(C(=O)NC1Cc2cc(O)cc(c2)-c2ccc3c(C(F)F)nn(c3c2)CC(C)COC(=O)C2CCCN(N2)C1=O)C(C)C (stereo not drawn) [Compound 205]
> 15 | 1 to 10 | ≤ 0.5 | CN(C(=O)C1CN(C(=O)CCl)C1)[C@@H](CC1CC1)C(=O)N[C@H]1Cc2cc(O)cc(c2)-c2ccc3c(C(C)(C)C#N)cn(c3c2)CC(C)(C)COC(=O)[C@@H]2CCCN(N2)C1=O [Compound 57]
